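Assay format: 96-well plates, 48-hour exposure. GI50 is the concentration that inhibits growth by half.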 Calls of active or inactive are those of the source. Cut-off read from the data, not from the text of the source: active = GI50 up to about 1.1 µM and inactive = higher.
Key:
Assay in all cases: DTP human tumour cell line panel, 48 h
NCI-H226 = system: NCI-H226
A498 = system: A498
OVCAR-8 = system: OVCAR-8
HOP-62 = system: HOP-62
SK-OV-3 = system: SK-OV-3
HOP-92 = system: HOP-92
SF-295 = system: SF-295
SK-MEL-5 = system: SK-MEL-5
IGROV-1 = system: IGROV-1
HCC 2998 = system: HCC 2998
HCT-15 = system: HCT-15
A549 = system: A549
SNB-19 = system: SNB-19
SNB-75 = system: SNB-75
NCI/ADR-RES = system: NCI/ADR-RES
MDA-MB-435 = system: MDA-MB-435
SK-MEL-28 = system: SK-MEL-28
SF-268 = system: SF-268
MOLT-4 = system: MOLT-4
RXF 393 = system: RXF 393

SMILES	GI50 (NCI-H226)	GI50 (A498)	GI50 (OVCAR-8)	GI50 (HOP-62)	GI50 (SK-OV-3)	GI50 (HOP-92)	GI50 (SF-295)	GI50 (SK-MEL-5)	GI50 (IGROV-1)	GI50 (HCC 2998)	GI50 (HCT-15)	GI50 (A549)	GI50 (SNB-19)	GI50 (SNB-75)	GI50 (NCI/ADR-RES)	GI50 (MDA-MB-435)	GI50 (SK-MEL-28)	GI50 (SF-268)	GI50 (MOLT-4)	GI50 (RXF 393)
Nc1cc2c3c(cccc3c1)C(=O)N(c1ccc(OCCN3CCCCC3)cc1)C2=O	18.6 µM (inactive)	16 µM (inactive)	16.1 µM (inactive)	15.8 µM (inactive)	15.1 µM (inactive)	14.9 µM (inactive)	16.9 µM (inactive)	15.3 µM (inactive)	17.6 µM (inactive)	19.9 µM (inactive)	12.7 µM	13.9 µM (inactive)	18.3 µM (inactive)	14.6 µM (inactive)	19.2 µM (inactive)	24.7 µM (inactive)	22.2 µM (inactive)	19.1 µM (inactive)	12.1 µM (inactive)	16.7 µM (inactive)
NCC[Se][Se]CCN	11 µM (inactive)	9.18 µM (inactive)	10.6 µM (inactive)	8.67 µM (inactive)	8.15 µM (inactive)	19.3 µM (inactive)	3.2 µM (inactive)	5.66 µM (inactive)	9.23 µM (inactive)	11.9 µM (inactive)	6.24 µM	6.03 µM (inactive)	8.47 µM (inactive)	10.6 µM (inactive)	9.31 µM (inactive)	12.3 µM (inactive)	13.3 µM (inactive)	16 µM (inactive)	5.25 µM (inactive)	15.6 µM (inactive)
